Reference: patent US12319913B2, “5-halouracil-modified microRNAs and their use in the treatment of cancer” (The Research Foundation for The State University of New York, priority 2018, dated 2025)
[5FU] = 5-fluorouracil base replacing uracil

How the values were obtained:
[1] = system: HCT116 derived colon cancer stem cells; type: cell-based; settings: lethal dose of 5-FU at 100 μM
Protocol: (§1) For transfections, 1×10^5 cells were plated in six-well plates and transfected with 100 nM of control non-specific miRNA (Thermo Fischer), a modified microRNA, or exogenous native microRNA after 24 hours using Oligofectamine (Thermo Fischer) following the manufacturer's protocols. For reagent free transfection, cells were plated in 6 well plates at (1×10^5) cells per well. Twenty-four hours later 100 pmol miRNA (Control, miR-15a, Mimic-1) were diluted in Optimem (Thermo Fischer) and added to the plate. Media was changed after 24 hours. Media was supplemented with 10% fetal bovine serum (Thermo Fischer). Briefly, cells were cultured in growth media (DMEM/F12 supplemented with B27, 10 ng/mL bFGF, and 20 ng/mL EGF (Life Technologies) in ultra-low attachment flasks) for up to 6 days. The spheroid cells were maintained by collection through gentle centrifugation, dissociation to single cells and replating.
miR-129 mimics eliminated chemotherapy resistant colon cancer stem cells. To determine the impact of certain exemplary modified microRNAs of the present disclosure (i.e., miR-129 mimics) on 5-FU resistant colon cancer stem cells, HCT116 derived colon cancer stem cells were treated with various concentrations of Mimic-1 or 5-FU.

[2] = system: MDA-MB-231 triple negative breast cancer cells; experiment: MTT cell proliferation, MDA-MB-231, with or without oligofectamine; type: cell-based, human
Protocol: as §1
Furthermore, to test whether or not the modified microRNAs of the present disclosure can be delivered directly to cells and taken up by the cancer cells without the use of transfer agents or vehicles (i.e., oligofectamine), MDA-MB-231 triple negative breast cancer cells were transfected with miR-NC (negative control), exogenous unmodified miR-200b or miR-489, 5-FU-miR-200b or modified miR-489 by using oligofectamine or without delivery vehicle. As shown in FIGS. 17A-17B and 20A, the effects of expression of the exemplary modified miRs tested on breast cancer cell proliferation were monitored by MTT assay for 6 days upon transfection or incubation.

MDC1 and SUZ12 = experiment: Western blot of MDC1 and SUZ12 in triple negative breast cancer cells; type: cell-based, human; settings: triple negative breast cancer cells, western blot
Protocol: (§2) Western immunoblot analysis: Forty-eight hours after transfection, equal amounts of protein (15 μg) extracted from cells lysed in RIPA buffer with protease inhibitor (Sigma) and were separated on 10%-12% sodium dodecyl sulfate-polyacrylamide gels using standard procedures. The primary antibodies used for the analysis were rabbit anti-YAP1 monoclonal antibody (1:10000) (Cell Signaling Technologies), anti-DLCK1 (1:500) (Abcam), anti-BCL2 (1:500) (NeoMarkers), anti-MDC1 (1:500), anti-SUZ12 (1:500), anti-pChk-1 (1:500), anti beta-actin (1:500), anti-BMI-1 (1:10000) (Cell Signaling Technologies), mouse anti-human TS antibody (1:500), anti-α-tubulin (1:50000) (Santa Cruz Biotech Inc.), anti-GAPDH (1:100000) (Santa Cruz Biotech Inc.), anti-E2F3 (1:500) (Santa Cruz Biotech Inc.), Horseradish peroxidase-conjugated antibodies against mouse or rabbit (1:5000, Santa Cruz Biotech Inc.) were used as the secondary antibodies. Protein bands were visualized with autoradiography film using SuperSignal West Pico Chemiluminescent Substrate (Thermo Fischer). Western blot density was quantified using Image J software.

[3] = system: Hs766T pancreatic cancer cells; experiment: Cell proliferation, Hs766T; type: cell-based, human; settings: compared to negative controls
Protocol: as §1
(§3) Cell proliferation assay: Twenty-four hours after transfection, cells were seeded in 96-well plates at a density of 2000 cells per well. The cell proliferation assay was performed on days 1 to 5 by incubating 10 μl WST-1 (Roche Applied Science, Mannheim, Germany) in the culture medium for 1 h and reading the absorbance at 450 and 630 nm. The cell proliferation rate was calculated by subtracting the […]. Experiments for the cell proliferation assay were performed at least three times. The O.D. was calculated by subtracting the absorbance at 630 nm from that at 450 nm. Proliferation experiments were performed three times.

[4] = system: HCT116 colon cancer cells; experiment: WST-1 cell proliferation assay, HCT116; type: cell-based, human
Protocol: as §1, with “1×10^5 cells were plated in six-well plates and transfected with 100 nM of control non-specific miRNA (Thermo Fischer), a modified microRNA, or exogenous native microRNA after 24 hours using Oligofectamine” left out
as §3

[5] = system: Panc-1 pancreatic cancer cells; experiment: Cell proliferation, Panc-1; type: cell-based, human; settings: PANC-1; 50 nM, 25 nM, 12.5 nM, 6.25 nM, and 3.125 nM
Protocol: as §1, with “For transfections, 1×10^5 cells were plated in six-well plates and transfected with 100 nM of control non-specific miRNA (Thermo Fischer), a modified microRNA, or exogenous native microRNA after 24 hours using Oligofectamine (Thermo Fischer) following the manufacturer's protocols.” left out
as §3

[6] = system: SKBR3 breast cancer cells; experiment: Cell proliferation, SKBR3; type: cell-based, human; settings: SKBR3, compared to negative controls
Protocol: as §1, §3

A549 lung cancer cells = experiment: Cell proliferation, A549; type: cell-based, human; settings: A549, compared to negative controls
Protocol: as §1, §3

[7] = system: AsPC-1 pancreatic cancer cells; experiment: Cell proliferation, AsPC-1; type: cell-based, human; settings: APSC-1; 50 nM, 25 nM, 12.5 nM, 6.25 nM, and 3.125 nM
Protocol: as §1, with “For transfections, 1×10^5 cells were plated in six-well plates and transfected with 100 nM of control non-specific miRNA (Thermo Fischer), a modified microRNA, or exogenous native microRNA after 24 hours using Oligofectamine (Thermo Fischer) following the manufacturer's protocols.” left out
as §3

AGS stomach cancer cells = experiment: Cell proliferation, AGS; type: cell-based, human; settings: compared to negative controls
Protocol: as §1, §3

[8] = system: acute lymphocytic leukemia cell line (REH); experiment: Cell proliferation, REH; type: cell-based, human; settings: compared to negative controls
Protocol: as §1, §3

[9] = system: acute lymphocytic leukemia cell line (REH); experiment: Cell proliferation, REH; type: cell-based, human; settings: 50 nM, 25 nM, 12.5 nM, 6.25 nM, and 3.125 nM
REH leukemia cells = experiment: Cell cycle analysis, REH leukemia cells; type: cell-based, human; settings: 50 nM, compared to the control
Protocol: (§4) Cell cycle analysis: Twenty-four hours after transfection, cells were harvested and resuspended at 0.5 to 1×10^6 cells/mL in modified Krishan's buffer supplemented with 0.02 mg/mL RNase H and 0.05 mg/mL propidium iodide. Stained cells were detected by flow cytometry and results were analyzed with Modfit LT™ software. The experiments for cell cycle analysis were performed at least three times.

HCT-116 cells = experiment: Cell cycle analysis by flow cytometry, colon cancer cells; type: cell-based, human; settings: colon cancer cells, compared to the control
Protocol: as §4

colon cancer stem cells = experiment: Anchorage-independent colony formation (soft agar); type: cell-based, human; settings: soft agar / Matrigel matrix
Protocol: Anchorage-independent proliferation was studied to determine cancer cell colony forming ability. Cancer cells were trypsinized and counted and a total of 1×10^5 cells per well were transfected in 6-well plates with 25 nM modified microRNA or native miRs or a negative control miRNA with oligofectamine, and 6 hours after transfection, cells were recounted. A total of 20,000 cells in 0.35% agar (Bacto Agar; Becton Dickinson) were layered on top of 1 mL of a solidified 0.6% agar layer in a 35-mm dish. Growth media with B27, 10 ng/mL bFGF, and 20 ng/mL EGF were included in both layers. After 2 weeks of incubation, colonies more than […] in diameter were counted.

[10] = system: YAP1, BMI1, DCLK1 and BCL2; experiment: Western blot of miR-15a targets in HCT-116 colon cancer stem cells; type: cell-based, human; settings: three days following transfection
Protocol: as §2, with “[…],” for “Forty-eight hours after transfection,”, “software. […]” for “software.”

Row | Compound | pancreatic cancer cell proliferation [3] | cell proliferation, dose dependence [5] | breast cancer cell proliferation [6] | lung cancer cell proliferation (A549 lung cancer cells) | cell proliferation, dose dependence [7] | gastric cancer cell proliferation (AGS stomach cancer cells) | leukemia cancer cell proliferation [8] | leukemia cancer cell proliferation, dose dependence [9] | G1/S ratio (REH leukemia cells) | further results
1 | O=c1[nH]cc(F)c(=O)[nH]1 [5-FU, 5-fluoro-1H-pyrimidine-2,4-dione, reference compound] | – | – | – | – | – | – | – | – | – | effect on tumor stem cell viability [1]: minimal effect
2 | CGACGGCAUAUACACUACAGUG (chemistry not fully specified; listed as Homo sapiens) [native miR-489, 31] | – | – | – | – | – | – | – | – | – | cell proliferation without delivery vehicle (no oligofectamine) ([2]; MDA-MB-231, MTT assay): did not inhibit cell growth; cell proliferation in the presence of oligofectamine ([2]; MDA-MB-231, MTT assay for 6 days, vs miR-NC): reduced the rate of cell proliferation; cancer cell proliferation, native miR without 5-FU chemotherapy ([2]; MDA-MB-231, MTT, compared with 5 μM 5-FU alone): reduces cancer cell proliferation in a manner similar to that exhibited when cells are treated with 5-FU alone; MDC1 and SUZ12 protein expression (MDC1 and SUZ12): reduction of MDC1 and SUZ12 protein expression
3 | CU^FGACCU^FAU^FGAAU^FU^FGACAGCC (CUGACCUAUGAAUUGACAGCC; RNA, [5FU] at 2, 7, 9, 13, 14, backbone not given here) [modified miR-192] | inhibited | inhibited in a dose dependent manner | inhibited | inhibited | inhibited in a dose dependent manner | inhibited | inhibited | inhibited in a dose dependent manner | – | inhibition of colon cancer cell proliferation ([4]; HCT116, in words, vs controls): increased ability to inhibit colorectal cancer cell proliferation
4 | GU^FCCAGU^FU^FU^FU^FCCCAGGAAU^FCCCU^F (GUCCAGUUUUCCCAGGAAUCCCU; RNA, [5FU] at 2, 7, 8, 9, 10, 19, 23, backbone not given here) [modified miR-145] | inhibited | inhibited in a dose dependent manner | inhibited | inhibited | inhibited in a dose dependent manner | inhibited | inhibited | inhibited in a dose dependent manner | significant fold increase in the G1/S ratio | –
5 | UAGCAGCACAUAAUGGUUUGUG (RNA, backbone not given here; listed as Homo sapiens) [unmodified miR-15a, reference compound] | – | – | – | – | – | – | – | – | – | increase in the G1/S ratio (HCT-116 cells): about 3 fold; colony / sphere formation (colon cancer stem cells): very few colonies; decrease of cell proliferation compared to control ([4]; HCT-116, WST-1, six days after transfection): 53%; protein levels of YAP1, BMI1, DCLK1 and BCL2 [10]: reduced
6 | U^FGAGGU^FAGU^FAGGU^FU^FGU^FAU^FAGU^FU^F [modified miR-let-7] | inhibited | inhibited in a dose dependent manner | inhibited | inhibited | inhibited in a dose dependent manner | inhibited | inhibited | inhibited in a dose dependent manner | significant fold increase in the G1/S ratio | –
